Laboratory results taken from paper PMC3480357, “Fragment-Hopping-Based Discovery of a Novel Chemical Series of Proto-Oncogene PIM-1 Kinase Inhibitors” (PLoS ONE, 2012).

Tests used:
PIM-2 = PIM-2 (Homo sapiens, UniProt Q9P1W9); test: PIM-2 kinase ADP Hunter Plus assay; format: biochemical; details: 100 µM ATP
PIM-3 = PIM-3 (Homo sapiens, UniProt Q86V86); test: PIM-3 kinase ADP Hunter Plus assay; format: biochemical; details: 100 µM ATP, Figure 1
Method: Kinase activity was measured with the commercial ADP Hunter™ Plus assay (DiscoveRx Ref. #33-016), a homogeneous assay measuring ADP accumulation, as a universal product of kinase activity. The assay was conducted following the manufacturer’s recommendations and adapting the protein and substrate concentrations for optimal conditions. The kinase assay buffer was 15 mM HEPES, pH 7.4, 20 mM NaCl, 1 mM EGTA, 0.02% Tween-20, 10 mM MgCl2 and 0.1 mg/ml BGG (bovine γ-globulin). All PIM kinase assays were performed with 100 µM PIMtide ([…]) as the peptide substrate and 100 µM ATP. The protein concentrations were 50, 350 and 500 ng/µl for PIM-1, 2 and 3, respectively. To calculate the IC50 of the ETP-compounds, serial 1∶5 dilutions were prepared and the reaction was started with the addition of ATP. The reaction was incubated for 1 h at 25°C. Reagents A and B (DiscoveRx) were sequentially added to the wells, and the plates were incubated for 30 min at 37°C. Fluorescence counts were read in a Victor instrument (Perkin Elmer) with the recommended settings (544 and 580 nm as the excitation and emission wavelengths, respectively). Values were plotted against the inhibitor concentrations and fit to a sigmoid dose–response curve using GraphPad software.

Chain of PIM-2 (Q9P1W9 whole entry): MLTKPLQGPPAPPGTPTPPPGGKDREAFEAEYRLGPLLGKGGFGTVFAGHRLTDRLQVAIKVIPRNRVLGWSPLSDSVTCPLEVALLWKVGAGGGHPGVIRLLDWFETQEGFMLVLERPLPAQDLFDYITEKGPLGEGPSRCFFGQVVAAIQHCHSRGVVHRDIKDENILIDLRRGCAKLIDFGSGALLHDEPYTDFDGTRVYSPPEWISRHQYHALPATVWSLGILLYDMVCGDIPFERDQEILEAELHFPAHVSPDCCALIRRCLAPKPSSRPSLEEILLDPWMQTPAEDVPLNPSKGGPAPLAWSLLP

IC50 (PIM-2): 443 nM
IC50 (PIM-3): 1000 nM
SMILES: CC(=O)c1cccc(-c2cnc3ccc(NCC4CC4)nn23)c1 [Compound 2, reference compound]
